Measured values from ChEMBL document CHEMBL3885881, “DrugMatrix”.
Values joined by “and” are separate entries in the source; they are usually repeats but may differ in a detail not shown here. Identical values can stand only once.

Organism: Rattus norvegicus
Assay: DrugMatrix - Regimen: Daily Repeat
Type: toxicity, organism-based, Sprague-Dawley
Parameters: regimen Daily Repeat, gender Male, age 6-8 weeks
Settings: in vivo, vehicle 100 % SALINE
[1] = iv, 15 mg/kg, 72 h, tissue Plasma, dose level High, time 3 day
[2] = iv, 15 mg/kg, 120 h, tissue Blood, dose level High, time 5 day
[3] = iv, 15 mg/kg, 120 h, tissue Plasma, dose level High, time 5 day
[4] = sc, 0 mg/kg, 72 h, tissue Blood, route mini-PUMP - SUBCUTANEOUS, dose level Control, time 3 day
[5] = sc, 0 mg/kg, 72 h, tissue Plasma, route mini-PUMP - SUBCUTANEOUS, dose level Control, time 3 day
[6] = sc, 0 mg/kg, 120 h, tissue Blood, route mini-PUMP - SUBCUTANEOUS, dose level Control, time 5 day
[7] = sc, 0 mg/kg, 120 h, tissue Plasma, route mini-PUMP - SUBCUTANEOUS, dose level Control, time 5 day

CC(C)NCC(O)c1ccc(O)c(O)c1 (stereo not given) [ISOPROTERENOL]
POTASSIUM [1]: 6.86 MEQ/L
SODIUM [1]: 146.03 MEQ/L
TOTAL BILIRUBIN [1]: 0.13 mg/dL
TOTAL PROTEIN [1]: 5.8 G/DL
URIC ACID [1]: 1.53 mg/dL
ABSOLUTE BASOPHIL [2]: 0 CELLS/uL
ABSOLUTE EOSINOPHIL [2]: 89.33 CELLS/uL
ABSOLUTE LYMPHOCYTE [2]: 14556.33 CELLS/uL
ABSOLUTE MONOCYTE [2]: 270.67 CELLS/uL
ABSOLUTE SEGMENTED NEUTROPHIL [2]: 850.33 CELLS/uL
BASOPHIL [2]: 0%
EOSINOPHIL [2]: 0.67%
ERYTHROCYTE COUNT [2]: 5.8 x10E6/uL
HEMATOCRIT [2]: 37.17%
HEMOGLOBIN [2]: 13.6 G/DL
LEUKOCYTE COUNT [2]: 15.77 x10E3/uL
LYMPHOCYTE [2]: 92%
MEAN CORPUSCULAR HEMOGLOBIN [2]: 23.53 pg
MEAN CORPUSCULAR HEMOGLOBIN CONCENTRATION [2]: 36.7 G/DL
MEAN CORPUSCULAR VOLUME [2]: 64.07 fL
MONOCYTE [2]: 1.67%
NEUTROPHIL [2]: 5.67%
NUCLEATED RED BLOOD CELLS [2]: 0 /100WBC
PLATELET COUNT [2]: 1301.33 x10E3/uL
ALANINE AMINOTRANSFERASE [3]: 56 u/L
ALBUMIN [3]: 4.03 G/DL
ALKALINE PHOSPHATASE [3]: 369.67 u/L
ASPARTATE AMINOTRANSFERASE [3]: 62.33 u/L
BLOOD UREA NITROGEN [3]: 14.33 mg/dL
CARBON DIOXIDE [3]: 30.33 mmol/L
CHLORIDE [3]: 103.67 MEQ/L
CHOLESTEROL [3]: 65.67 mg/dL
CREATINE PHOSPHOKINASE [3]: 190.67 u/L
CREATININE [3]: 0.23 mg/dL
GLUCOSE [3]: 141 mg/dL
LACTATE DEHYDROGENASE [3]: 80 u/L
LIPASE [3]: 9 u/L
PHOSPHORUS [3]: 11.63 mg/dL
POTASSIUM [3]: 6.67 MEQ/L
SODIUM [3]: 146.27 MEQ/L
TOTAL BILIRUBIN [3]: 0.2 mg/dL
TOTAL PROTEIN [3]: 6.13 G/DL
URIC ACID [3]: 1.43 mg/dL
ABSOLUTE SEGMENTED NEUTROPHIL [4]: 1658.33 CELLS/uL
BASOPHIL [4]: 0.3% and 0%
EOSINOPHIL [4]: 0.43% and 0.5%
ERYTHROCYTE COUNT [4]: 6.91 x10E6/uL and 6.27 x10E6/uL
HEMATOCRIT [4]: 45.43% and 36.95%
HEMOGLOBIN [4]: 14.37 G/DL and 13.4 G/DL
LEUKOCYTE COUNT [4]: 12.09 x10E3/uL and 16.38 x10E3/uL
LYMPHOCYTE [4]: 81.73% and 87.17%
MEAN CORPUSCULAR HEMOGLOBIN [4]: 20.8 pg and 21.42 pg
MEAN CORPUSCULAR HEMOGLOBIN CONCENTRATION [4]: 31.67 G/DL and 36.27 G/DL
MEAN CORPUSCULAR VOLUME [4]: 65.83 fL and 59.03 fL
MONOCYTE [4]: 1.83% and 2%
NEUTROPHIL [4]: 15.07% and 10.33%
NUCLEATED RED BLOOD CELLS [4]: 0 /100WBC
PLATELET COUNT [4]: 1299.67 x10E3/uL and 904.67 x10E3/uL
ALANINE AMINOTRANSFERASE [5]: 34.33 u/L and 48.33 u/L
ALBUMIN [5]: 3.83 G/DL and 3.82 G/DL
ALKALINE PHOSPHATASE [5]: 333.67 u/L and 282.33 u/L
ASPARTATE AMINOTRANSFERASE [5]: 68 u/L and 86.83 u/L
BLOOD UREA NITROGEN [5]: 19.33 mg/dL and 20.17 mg/dL
CARBON DIOXIDE [5]: 43 mmol/L and 34.67 mmol/L
CHLORIDE [5]: 103.67 MEQ/L and 102 MEQ/L
CHOLESTEROL [5]: 84.33 mg/dL and 71.5 mg/dL
CREATINE PHOSPHOKINASE [5]: 334.33 u/L
CREATININE [5]: 0.53 mg/dL and 0.2 mg/dL
GLUCOSE [5]: 156.67 mg/dL and 136.83 mg/dL
LACTATE DEHYDROGENASE [5]: 159 u/L
PHOSPHORUS [5]: 9.8 mg/dL and 10.12 mg/dL
POTASSIUM [5]: 5.93 MEQ/L and 5.92 MEQ/L
SODIUM [5]: 146.33 MEQ/L and 147.8 MEQ/L
TOTAL BILIRUBIN [5]: 0.37 mg/dL and 0.2 mg/dL
TOTAL PROTEIN [5]: 6.4 G/DL and 6.05 G/DL
URIC ACID [5]: 0.73 mg/dL and 1.4 mg/dL
ABSOLUTE SEGMENTED NEUTROPHIL [6]: 3216.67 CELLS/uL
BASOPHIL [6]: 0.2% and 0%
EOSINOPHIL [6]: 0.33% and 0%
ERYTHROCYTE COUNT [6]: 6.81 x10E6/uL and 6.11 x10E6/uL
HEMATOCRIT [6]: 44.33% and 36.22%
HEMOGLOBIN [6]: 13.77 G/DL and 13.18 G/DL
LEUKOCYTE COUNT [6]: 11.2 x10E3/uL and 17.8 x10E3/uL
LYMPHOCYTE [6]: 80.33% and 80.5%
MEAN CORPUSCULAR HEMOGLOBIN [6]: 20.23 pg and 21.62 pg
MEAN CORPUSCULAR HEMOGLOBIN CONCENTRATION [6]: 31.03 G/DL and 36.42 G/DL
MEAN CORPUSCULAR VOLUME [6]: 65.1 fL and 59.37 fL
MONOCYTE [6]: 2.1% and 1.83%
NEUTROPHIL [6]: 16.43% and 17.67%
NUCLEATED RED BLOOD CELLS [6]: 0 /100WBC
PLATELET COUNT [6]: 1573.33 x10E3/uL and 1311 x10E3/uL
ALANINE AMINOTRANSFERASE [7]: 38 u/L and 47 u/L
ALBUMIN [7]: 3.87 G/DL and 3.83 G/DL
ALKALINE PHOSPHATASE [7]: 303.67 u/L and 260.33 u/L
ASPARTATE AMINOTRANSFERASE [7]: 72.67 u/L and 76.17 u/L
BLOOD UREA NITROGEN [7]: 17.33 mg/dL and 14.67 mg/dL
CARBON DIOXIDE [7]: 41.33 mmol/L and 31.33 mmol/L
CHLORIDE [7]: 104.33 MEQ/L and 101.17 MEQ/L
CHOLESTEROL [7]: 74.33 mg/dL and 75 mg/dL
CREATINE PHOSPHOKINASE [7]: 286.67 u/L
CREATININE [7]: 0.47 mg/dL and 0.16 mg/dL
GLUCOSE [7]: 152.33 mg/dL and 152.67 mg/dL
LACTATE DEHYDROGENASE [7]: 147.33 u/L
PHOSPHORUS [7]: 10 mg/dL and 10.97 mg/dL
POTASSIUM [7]: 6.4 MEQ/L and 6 MEQ/L
SODIUM [7]: 146 MEQ/L and 145.52 MEQ/L
TOTAL BILIRUBIN [7]: 0.43 mg/dL and 0.17 mg/dL
TOTAL PROTEIN [7]: 6.27 G/DL and 5.83 G/DL
URIC ACID [7]: 0.83 mg/dL and 1.27 mg/dL
ABSOLUTE SEGMENTED NEUTROPHIL (sc, 0 mg/kg, […], tissue Blood, route mini-PUMP - SUBCUTANEOUS, dose level Control, time 14 day): 2414 CELLS/uL
